Data as given in US20110166078A1, “OLIGOSACCHARIDE COMPOUNDS FOR USE IN MOBILISING STEM CELLS” (ENDOTIS PHARMA, priority 2008, published 2011).

Assays:
VEGF-A = target: T1, VEGF-A (Homo sapiens, UniProt P15692); test: VEGF-A/heparin competition assay by SPR (Biacore); type: binding; settings: 10 nM VEGF-A, biotinylated low molecular weight heparin, Sensorchip SA
T1 sequence (P15692 27-191 isoform P15692-4): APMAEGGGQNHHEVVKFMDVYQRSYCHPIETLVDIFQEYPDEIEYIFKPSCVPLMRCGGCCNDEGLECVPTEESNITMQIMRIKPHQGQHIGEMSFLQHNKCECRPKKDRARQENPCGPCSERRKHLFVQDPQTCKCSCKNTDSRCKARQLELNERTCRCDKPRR
Description: (§1) Heparin or low molecular weight heparin (6 kDa) from SIGMA were biotinylated at the reducing end and immobilized on a Biacore sensorchip. Different concentrations of the compounds of the present invention were co-incubated at a fixed concentration of targets: FGF-2, PDGF-β, VEGF-A or SDF-1α for 30 minutes. The mixture was then injected onto the streptavidin control (control reference) and HP surfaces. Only free growth factor (GF) or chemokine, i.e. the target molecules not bound to compounds of the present invention, were trapped on the heparin surface. From the binding of free targets on heparin, the percentages of inhibition were calculated and then reported in function of compound concentrations. The plot was fitted with a four-parameter model and IC50 was calculated. The 0% inhibition value was obtained for the injection of the studied target in running-buffer, and the 100% inhibition value was obtained for the injection of the studied target co-incubated with 10 μM of low molecular weight heparin 6 kDa.
A VEGF-A/heparin competition assay using the Biacore technology was performed using the following conditions: 10 nM VEGF-A, biotinylated low molecular weight heparin, Reference Streptavidin, Sensorchip SA, HBS-P, Regeneration NaCl 2M.
(§2) IC50 values of compounds of the present invention were determined using the Biacore technology for the growth factor and chemokine/heparin competition assays that contained the following proteins: VEGF-A, SDF-1α, FGF-2 and PDGF-β.

[1] = tested on: control and VEGF-A-stimulated angiogenesis (endothelial tubules, HUVEC/NHDF co-culture); test: In vitro angiogenesis assay (endothelial tubule formation, AngioKit); type: cell-based, human; settings: 30 μM compound; anti-CD31 ELISA and AngioSys image analysis; FIGS. 13-15
Source text: These experiments are also known as endothelial tubule formation assays and they are used to evaluate the compound effects on in vitro angiogenesis (the neo-formation of blood vessels from pre-existing ones). This process is critical in tumour development as bloodstream brings all the necessary nutrients and oxygen to cancer cells.
The assay uses a commercially available product (AngioKit) specially designed for screening experiments. The product consists of a 24 or 96-well culture plate containing endothelial and fibroblast cells. A similar assay has been developed “in-house” using 48-well culture plates.
Endothelial cells will, on a ten-day period, develop into a branched network of endothelial tubules or “primitive” blood vessels. This process requires a co-culture with fibroblasts, these latter cells secreting essential growth factors for endothelial cells. At the end of the incubation period (about ten days), angiogenesis is monitored both by ELISA and image analysis software quantifying different blood vessel parameters (number and average length of tubules, field area, number of junctions for example). All reagents and material (except the oligosaccharide compounds, the VEGF-A and the 48-well plate AngioKits) are bought from TCS CellWorks (http://www.tcscellworks.co.uk) which provides: • 24 and 96-well plate AngioKits (including culture medium) • Anti-CD31 (a cell marker specifically expressed on endothelial cells) reagents for ELISA and tubule staining procedures. • AngioSys image analysis software
For home-made 48-well plate AngioKits, NHDF and HUVEC cells were independently purchased while TCS CellWorks culture medium and protocol were used.
The cell medium is replaced with fresh one (day 1) and cells are incubated at 37° C. with the compounds of interest (oligosaccharides and/or angiogenic proteins, such as growth factors). During the course of the experiment, the culture medium (including oligosaccharides and/or angiogenic proteins) is replaced at days 4 and 7.
At day 10, the assay is terminated by the labelling of endothelial cells by an ELISA procedure (indirect colorimetric titration of the endothelial cell number through dosage of the endothelial-specific CD31 marker) and the staining of endothelial tubules. Photographs of stained tubules are taken and analysed with the AngioSys image analysis software.
In the following assay the effects of compounds 239, 240, 246, 247, 248, 249, 252, 254, 255 and 257 on in vitro angiogenesis were measured (all compounds were added at the 30 μM concentration). […] For the data presented in FIG. 13, AngioSys image analyses are shown on FIG. 14. Photographs of endothelial tubules are shown on the side of the anti-CD31 ELISA (see FIGS. 13 and 15).

SDF-1α = SDF-1α (Homo sapiens, UniProt P48061); test: SDF-1α/heparin competition assay by SPR (Biacore); type: binding; settings: 96 nM SDF-1α, biotinylated low molecular weight heparin (6 kDa), Sensorchip SA
Description: as §1
A SDF-1α/heparin competition assay using the Biacore technology was performed using the following conditions: 96 nM SDF-1α, biotinylated low molecular weight heparin (6 kDa), Reference Streptavidin, Sensorchip SA, HBS-P, Regeneration NaCl 2M
as §2

PDGF-β = PDGF-β (Homo sapiens, UniProt P01127); test: PDGF-β/heparin competition assay by SPR (Biacore); type: binding; settings: 10 nM PDGF-β, biotinylated heparin, Sensorchip C1
Description: as §1, with “kDa. A PDGF-β/heparin competition assay using the Biacore technology was performed using the following conditions: 10 nM PDGF-β, biotinylated heparin, Reference Streptavidin, Sensorchip C1, HBS-P, Regeneration NaCl 2M. IC50 values of compounds of the present invention were determined using the Biacore technology for the growth factor and chemokine/heparin competition assays that contained the following proteins: VEGF-A, SDF-1α, FGF-2 and PDGF-β.” for “kDa.”

FGF-2 = FGF-2 (Homo sapiens, UniProt P09038); test: FGF-2/heparin competition assay by SPR (Biacore); type: binding; settings: 10 nM FGF-2, biotinylated heparin, Sensorchip C1
Description: as §1
A FGF-2/heparin competition assay using the Biacore technology was performed in the following conditions: 10 nM FGF-2, biotinylated heparin, Reference Streptavidin, Sensorchip C1, PBS-T 0.02%, Regeneration NaCl 2M
as §2

| SMILES | IC50 (VEGF-A) [nM] | inhibition of control and/or VEGF-A-stimulated angiogenesis [1] | IC50 (SDF-1α) [nM] | IC50 (PDGF-β) [nM] | IC50 (FGF-2) [nM] |
| --- | --- | --- | --- | --- | --- |
| C#CCCCOC1OC(COS(=O)(=O)[O-])C(OC2OC(C(=O)[O-])C(OC3OC(COS(=O)(=O)[O-])C(OC4OC(C(=O)[O-])C(OC5OC(COS(=O)(=O)[O-])C(OC6OC(C(=O)[O-])C(OC)C(OC)C6OS(=O)(=O)[O-])C(OCc6ccccc6)C5NS(=O)(=O)[O-])C(OC)C4OS(=O)(=O)[O-])C(OCc4ccccc4)C3NS(=O)(=O)[O-])C(OC)C2OS(=O)(=O)[O-])C(OCc2ccccc2)C1NS(=O)(=O)[O-].[Na+].[Na+].[Na+].[Na+].[Na+].[Na+].[Na+].[Na+].[Na+].[Na+].[Na+].[Na+] (stereo not shown) [Compound 247] | 45 | inhibition of control and/or VEGF-A-stimulated angiogenesis | 430 | 1690 | > 100000 |
| C#CCCCOC1OC(COS(=O)(=O)[O-])C(OC2OC(C(=O)[O-])C(OC3OC(COS(=O)(=O)[O-])C(OC4OC(C(=O)[O-])C(OC5OC(COS(=O)(=O)[O-])C(OC6OC(C(=O)[O-])C(OCc7ccccc7)C(OCc7ccccc7)C6OS(=O)(=O)[O-])C(OCc6ccccc6)C5NS(=O)(=O)[O-])C(OCc5ccccc5)C4OS(=O)(=O)[O-])C(OCc4ccccc4)C3NS(=O)(=O)[O-])C(OCc3ccccc3)C2OS(=O)(=O)[O-])C(OC)C1NS(=O)(=O)[O-].[Na+].[Na+].[Na+].[Na+].[Na+].[Na+].[Na+].[Na+].[Na+].[Na+].[Na+].[Na+] (stereo not shown) [Compound 249] |  | inhibition of control and/or VEGF-A-stimulated angiogenesis |  | 225 | 136 |
| C#CCCCOC1OC(COS(=O)(=O)[O-])C(OC2OC(C(=O)[O-])C(OC3OC(COS(=O)(=O)[O-])C(OC4OC(C(=O)[O-])C(OC5OC(COS(=O)(=O)[O-])C(OC6OC(C(=O)[O-])C(OC)C(OC)C6OS(=O)(=O)[O-])C(OC)C5NS(=O)(=O)[O-])C(OC)C4OS(=O)(=O)[O-])C(OC)C3NS(=O)(=O)[O-])C(OC)C2OS(=O)(=O)[O-])C(OC)C1NS(=O)(=O)[O-].[Na+].[Na+].[Na+].[Na+].[Na+].[Na+].[Na+].[Na+].[Na+].[Na+].[Na+].[Na+] (stereo not shown) [Compound 248] | 1670 | inhibition of control and/or VEGF-A-stimulated angiogenesis | 22600 | 28000 | 1660 |
| C#CCCCOC1OC(COS(=O)(=O)[O-])C(OC2OC(C(=O)[O-])C(OC3OC(COS(=O)(=O)[O-])C(OC4OC(C(=O)[O-])C(OC5OC(COS(=O)(=O)[O-])C(OC6OC(C(=O)[O-])C(OCc7ccccc7)C(OCc7ccccc7)C6OS(=O)(=O)[O-])C(OCc6ccccc6)C5NS(=O)(=O)[O-])C(OCc5ccccc5)C4OS(=O)(=O)[O-])C(OC)C3NS(=O)(=O)[O-])C(OC)C2OS(=O)(=O)[O-])C(OC)C1NS(=O)(=O)[O-].[Na+].[Na+].[Na+].[Na+].[Na+].[Na+].[Na+].[Na+].[Na+].[Na+].[Na+].[Na+] (stereo not shown) [Compound 255] |  | inhibition of control and/or VEGF-A-stimulated angiogenesis |  | 122 | 36 |
| C#CCCCOC1OC(COS(=O)(=O)[O-])C(OC2OC(C(=O)[O-])C(OC3OC(COS(=O)(=O)[O-])C(OC4OC(C(=O)[O-])C(OC5OC(COS(=O)(=O)[O-])C(OC6OC(C(=O)[O-])C(OCc7ccccc7)C(OCc7ccccc7)C6OS(=O)(=O)[O-])C(OCc6ccccc6)C5NS(=O)(=O)[O-])C(OC)C4OS(=O)(=O)[O-])C(OC)C3NS(=O)(=O)[O-])C(OCc3ccccc3)C2OS(=O)(=O)[O-])C(OCc2ccccc2)C1NS(=O)(=O)[O-].[Na+].[Na+].[Na+].[Na+].[Na+].[Na+].[Na+].[Na+].[Na+].[Na+].[Na+].[Na+] (stereo not shown) [Compound 252] |  | inhibition of control and/or VEGF-A-stimulated angiogenesis |  | 171 | 121 |
| C#CCCCOC1OC(COS(=O)(=O)O)C(OC2OC(C(=O)O)C(OC3OC(COS(=O)(=O)O)C(OC4OC(C(=O)O)C(OCc5ccccc5)C(OCc5ccccc5)C4OS(=O)(=O)O)C(OCc4ccccc4)C3NS(=O)(=O)O)C(OCc3ccccc3)C2OS(=O)(=O)O)C(OCc2ccccc2)C1NS(=O)(=O)O (stereo not shown) [Compound 236] | 310 |  | 3600 | 1350 | 187 |
| C#CCCCOC1OC(COS(=O)(=O)[O-])C(OC2OC(C(=O)[O-])C(OC3OC(COS(=O)(=O)[O-])C(OC4OC(C(=O)[O-])C(OC5OC(COS(=O)(=O)[O-])C(OC6OC(C(=O)[O-])C(OCc7ccccc7)C(OCc7ccccc7)C6OS(=O)(=O)[O-])C(OC)C5NS(=O)(=O)[O-])C(OCc5ccccc5)C4OS(=O)(=O)[O-])C(OC)C3NS(=O)(=O)[O-])C(OCc3ccccc3)C2OS(=O)(=O)[O-])C(OC)C1NS(=O)(=O)[O-].[Na+].[Na+].[Na+].[Na+].[Na+].[Na+].[Na+].[Na+].[Na+].[Na+].[Na+].[Na+] (stereo not shown) [Compound 246] | 59 | inhibition of control and/or VEGF-A-stimulated angiogenesis | 865 | 194 | 167 |
